According to ChEMBL document CHEMBL3600368, “Novel broad-spectrum inhibitors of bacterial methionine aminopeptidase” (Bioorg Med Chem Lett, 2015):
≈ marks a conversion by molar mass, not a printed value. Residues, ends and D or L forms follow the SMILES beside them. *: point of attachment. Cbz = O=C(OCc1ccccc1)*

What was measured:
[1] = Inhibition of Escherichia coli methionine aminopeptidase
[2] = Inhibition of Haemophilus influenzae methionine aminopeptidase
[3] = Inhibition of Streptococcus pneumoniae methionine aminopeptidase
[4] = Inhibition of Staphylococcus aureus methionine aminopeptidase
[5] = Solubility of the compound; assay type: physicochemical
[6] = Lipophilicity, log D of the compound; assay type: physicochemical; conditions: octanol/water
[7] = Unbound fraction in plasma (unknown origin); assay type: ADME, cell-free
[8] = Intrinsic clearance in rat liver microsomes; assay type: ADME; conditions: read-out: CLH

Row | SMILES | IC50 [1] [µM] | IC50 [2] [µM] | IC50 [3] [µM] | IC50 [4] [µM] | solubility [5] [µM] | logD [6] | fraction unbound [7] | microsomal CLint [8] [µL/min/mg]
1 | C[C@H](NC(=O)OCc1ccccc1)C(=O)N[C@H]1CC=C[C@H](c2ccccc2)N(C)C1=O | 8.1 | 11.3 | 7.4 |  | 341 (≈ 144 µg/mL) | 1.65 | 0.027 | 720
2 | C[C@H](NC(=O)OCc1ccccc1)C(=O)N[C@H]1CC=C[C@@H](c2ccccc2)N(C)C1=O | > 200 | > 200 | > 200 |  |  |  |  | 
3 | C[C@@H](C(=O)N[C@H]1CC=C[C@H](c2ccccc2)N(C)C1=O)N(C)C(=O)OCc1ccccc1 | > 200 | > 200 | > 200 |  |  |  |  | 
4 | C[C@H](NC(=O)[C@@H](N)c1ccccc1)C(=O)N[C@H]1CC=C[C@H](C2CCCCC2)N(C)C1=O | 1.4 | 6.7 | 0.12 |  | > 1000 | 1.98 | 0.108 | 93.5
5 | C[C@H](NC(=O)[C@@H](N)Cc1ccccc1)C(=O)N[C@H]1CC=C[C@H](C2CCCCC2)N(C)C1=O | 2.2 | 4.7 | 9.7 |  | > 1000 | 2.2 | 0.109 | 689
6 | C[C@H](NC(=O)[C@H](C)NC(=O)OCc1ccccc1)C(N)=O (Cbz-Ala-Ala-NH2) | > 200 | > 200 | > 200 |  |  |  |  | 

Now from value to compound:

Row | IC50 [1] [µM] | IC50 [2] [µM] | IC50 [3] [µM] | IC50 [4] [µM] | solubility [5] [µM] | logD [6] | fraction unbound [7] | microsomal CLint [8] [µL/min/mg] | SMILES
7 | 30 | 60 | 46 | > 200 | 450 (≈ 199 µg/mL) | 2.6 | 0.051 | 339 | C[C@H](NC(=O)Cc1cc(F)cc(F)c1)C(=O)N[C@H]1CC=C[C@H](c2ccccc2)N(C)C1=O
8 | > 200 | > 200 | > 200 |  |  |  |  |  | CC(=O)N[C@@H](C)C(=O)N[C@H]1CC=C[C@H](c2ccccc2)N(C)C1=O
9 | > 200 | > 200 | > 200 |  |  |  |  |  | CN1C(=O)[C@@H](NC(=O)C(C)(C)NC(=O)OCc2ccccc2)CC=C[C@@H]1c1ccccc1
10 | > 200 | > 200 | > 200 |  |  |  |  |  | CC(C)[C@H](NC(=O)OCc1ccccc1)C(=O)N[C@H]1CC=C[C@H](c2ccccc2)N(C)C1=O
11 | 102 | 132 | 71.4 |  |  |  |  |  | CN1C(=O)[C@@H](NC(=O)[C@H](CO)NC(=O)OCc2ccccc2)CC=C[C@@H]1c1ccccc1
12 | 8 | 15.6 | 4 |  |  |  |  |  | C[C@H](NC(=O)[C@H](N)c1ccccc1)C(=O)N[C@H]1CC=C[C@H](C2CCCCC2)N(C)C1=O
13 | > 200 | > 200 | > 200 |  |  |  |  |  | C[C@H](N)C(=O)N[C@@H](C)C(=O)N[C@H]1CC=C[C@H](C2CCCCC2)N(C)C1=O
14 | 0.8 | 1.1 | 0.3 |  | 888 (≈ 409 µg/mL) | 2.69 | 0.016 | 159 | C[C@H](NC(=O)[C@@H](N)c1cccc(Cl)c1)C(=O)N[C@H]1CC=C[C@H](C2CCCCC2)N(C)C1=O
